5 molecules from patent publication US6436987B1, “Crystalline forms of (3S-trans)-2-[3,4-dihydro-4-hydroxy-3-(phenylmethyl)-2H-1-benzopyran-7-yl]-4-(trifluoromethyl)-benzoic acid” (Pfizer Inc., priority 2000, dated 2002) can be followed below.

In brackets after ≈: the same amount, converted by molar mass. Counter-ions that a name gives are not always drawn.

What all share (type): physicochemical
Data set [1] can be described thus: comparison of forms: solubility in aqueous solvents. The conditions noted are these: polymorph B versus polymorph A; salt versus all other known forms.
Data set [2] can be described thus: equilibrium solubility determined during polymorph screen. The conditions noted are these: thermodynamic from solid; pH 7 water, four days at ambient temperature. Here is the method: Using the microscopy methods described by Haleblaine and McCrone, Journal of Pharmaceutical Sciences, 58(8), pp. 911-929, 1969, a polymorph screen was conducted for the ethylene diamine (mono) salt of compound (I). No polymorphs were observed. A more extensive polymorph screen was run on the (mono) salt of compound (I′), involving 31 isolations, and again no polymorphs were observed. During the polymorph screen, an equilibrium solubility for the ethylene diamine (mono) salt of compound (I) was determined. After maintaining a sample for four days at ambient temperature, an equilibrium solubility value of approximately 4 mg/ml was determined, in pH 7 water. Additionally, the ethylene diamine (bis) salt was not observed in these studies.

The nature of data set [3]: comparison of forms: thermal stability.
A short description of data set [4]: equilibration of forms under ambient conditions (relative energy). The source says:
As evaluated by equilibration of the polymorphs (A and B) under ambient conditions, polyporph A is the lower energy form.

The nature of data set [5]: hygroscopicity: weight gain at 87% RH. The conditions noted are these: for weight gain (hygroscopicity): after 72 hours at 87% RH. The protocol: Polymorph A has an X-ray powder diffraction pattern that is unique to the form as previously described (FIG. 1). Upon microscopic examination, crystals appear as small needles and aggregates thereof, but which are not reliably distinguished from those of polymorph B (FIG. 2). By fusion microscopy, polymorph A is determined to commence melting at about 144° C., with no recrystallization noted upon further temperature increases. […] (FIG. 5).

A short description of data set [6]: solid-state storage stability in sealed dark glass bottle under nitrogen. The conditions noted are these: sealed dark colored glass bottle, under nitrogen gas. The source says:
However, polymorph B may be stably stored in solid form. If placed in a sealed dark colored glass bottle, under nitrogen gas, polymorph B crystals are stable for at least 6 weeks.
(§1) Examples of suitable solvent include ethyl acetate: hexanes 1:5.

The nature of data set [7]: conversion (bridging) to polymorph A in solvent. Here is the method:
Polymorph B crystals may also be converted back to polymorph A crystals by placement in a solvent in which the B form is very slightly soluble, such as n-hexanes. Over a period of time (for example, no more than 18 hours) crystals of polymorph A will develop. Prolonged granulation (for example 18 hours) even when conducted at 5° C. will also effect conversion to polymorph A.
as §1

Data set [8] is described as follows: salt screen for suitable crystalline properties. The conditions noted are these: salt of compound (I′). Here is the method: Again using compound (I′), the following salt species were prepared and screened for the presence of suitable crystalline properties. […] The olamine salt was recovered as an oil. The meglumine salt material was determined to be amorphous. Both the benzathine (mono) and benzathine (bis) salts were also determined to be amorphous. Crystalline solids could also not be prepared for the L-arginine, L-lysine, calcium, potassium, and magnesium salts.

For the molecule `O=C(O)c1ccc(C(F)(F)F)cc1-c1ccc2c(c1)OC[C@H](Cc1ccccc1)[C@H]2O` [(3S-trans)-2-[3,4-dihydro-4-hydroxy-3-(phenylmethyl)-2H-1-benzopyran-7-yl]-4-(trifluoromethyl)-benzoic acid], the “solubility in aqueous solvents relative to other forms” value in data set [1] was “greater solubility in aqeuous solvents”. Also, in data set [2], the thermodynamic solubility (as a rule, solubility found after equilibrating the solid with the medium) at 4 days was approximately 4000 µg/mL (≈ 9.34 mM).
Consider `O=C(O)c1ccc(C(F)(F)F)cc1-c1ccc2c(c1)OC[C@H](Cc1ccccc1)[C@H]2O` [Polymorph A, (3S-trans)-2-[3,4-dihydro-4-hydroxy-3-(phenylmethyl)-2H-1-benzopyran-7-yl]-4-(trifluoromethyl)-benzoic acid], for which the “thermal stability relative to all other known forms of compound (I)” value in data set [3] is “greater thermal stability”. Further, the “relative energy of the crystal form” value in data set [4] is “lowest energy form”. Also, the hygroscopicity in words entry in data set [5] (87% RH, ambient temperature) is listed as “substantially non-hygroscopic”. Moreover, the “weight gain (hygroscopicity)” value in data set [5] (again at ambient temperature (second value stated)) came out at 0.36%; in data set [5] (ambient temperature (first value stated)) it was 0.2%.
`O=C(O)c1ccc(C(F)(F)F)cc1-c1ccc2c(c1)OC[C@H](Cc1ccccc1)[C@H]2O` [monohydrate, (3S-trans)-2-[3,4-dihydro-4-hydroxy-3-(phenylmethyl)-2H-1-benzopyran-7-yl]-4-(trifluoromethyl)-benzoic acid]: the “time stable in solid form” value in data set [6] was “at least six weeks”. Also, in data set [4], the “relative energy of the crystal form” value was “higher in energy than polymorph A”. Moreover, the “bridging to polymorph A” value in data set [7] (hexanes alone) is listed as “no bridging occurs”; in data set [7] (solvents with some minimal solubility, e.g. ethyl acetate: hexanes 1:5), “readily bridges to polymorph A”.
As for `O=C(O)c1ccc(C(F)(F)F)cc1-c1ccc2c(c1)OC[C@H](Cc1ccccc1)[C@H]2O` [polymorph B, (3S-trans)-2-[3,4-dihydro-4-hydroxy-3-(phenylmethyl)-2H-1-benzopyran-7-yl]-4-(trifluoromethyl)-benzoic acid], in data set [1], the “solubility in aqueous solvents relative to other forms” value is listed as “greater solubility in aqeuous solvents”. Moreover, the “time stable in solid form” value in data set [6] was “at least 6 weeks”. Further, the “time for conversion to polymorph A” value in data set [7] (in a solvent in which the B form is very slightly soluble, such as n-hexanes) was “no more than 18 hours”.
In the case of `O=C(O)c1ccc(C(F)(F)F)cc1-c1ccc2c(c1)OC[C@@H](Cc1ccccc1)[C@@H]2O` [sodium salt, (3R-trans)-2-[3,4-dihydro-4-hydroxy-3-(phenylmethyl)-2H-1-benzopyran-7-yl]-4-(trifluoromethyl)-benzioc acid], the hygroscopicity of salt entry in data set [8] is listed as “hygroscopic, becoming an oil”.
